System: luciferase mRNA (Fluc mRNA) expression
Test: Luciferase mRNA delivery performance in vivo of lipid nanoparticles prepared from amino lipid compounds (IVIS imaging)
Design: species or system BALB/c mice
Conditions: for Average fluorescence intensity (subcutaneous) / Average fluorescence intensity (intramuscular) / Average fluorescence intensity (tail vein): Fluc mRNA LNP, 0.5 mg/kg, imaging 6 hours after injection, male BALB/c mice; for Average fluorescence intensity (subcutaneous) / Average fluorescence intensity (intramuscular): preparation process I (DOPE); for Average fluorescence intensity (tail vein): preparation process II (DSPC); for delivery capacity after introduction of the alkynyl group: in vivo delivery, compared with corresponding amino lipid compounds without alkynyl group (36, 37)
Experimental: Example 40: Evaluation of Luciferase mRNA Delivery Performance In Vivo of Lipid Nanoparticles Prepared from Amino Lipid Compounds
Preparation of lipid nanoparticles:
Preparation process I: The amino lipid compound described in the present invention and DOPE, cholesterol, PEG2000-DMG were mixed and dissolved in absolute ethanol in a molar ratio of 45:10:42.5:2.5. Two microinjection pumps were used, and the ratio of ethanol solution to sodium acetate solution (50 mM, pH=4.0) was controlled to be 1:3. A crude solution of lipid nanoparticles was prepared in a micro flow channel chip, then dialyzed for 6 hours with 1×PBS at a controlled temperature of 4° C. by using a dialysis cassette (Fisher, MWCO 20,000), and filtered with a 0.22 μm microporous filter membrane before use. The mass ratio of the amino lipid compound to luciferase mRNA (Fluc mRNA) was about 10:1. The administration route included subcutaneous and intramuscular injections.
Preparation process II: the molar ratio of amino lipid compound to DSPC, cholesterol, PEG2000-DMG was 50:10:38.5:1.5, and the preparation process was identical to the preparation process I. The administration route was tail vein administration.
Animal preparation: 6-week-old male BALB/c mice with body weights of about 20 g were selected, and fed in an SPF-grade feeding room. Animal experiments were strictly carried out according to the guidelines of the national health institution and the requirements of animal ethics. In vivo delivery: 9 mice were randomly selected per group and injected with lipid nanoparticles at a dose of 0.5 mg/kg by three administration routes: subcutaneous, intramuscular, and tail vein, respectively (three animals per administration route). After 6 hours, […] of 10 mg/mL potassium […] was injected into each mouse via the tail vein, and after 10 minutes, the mice were placed under an in vivo imaging system (IVIS-200, Xenogen), and the total fluorescence intensity of each mouse was observed and recorded by photographing. The expression intensities of Fluc mRNA delivered by the three administration routes of representative amino lipid compounds were shown in Tables 1-3. DLin-MC3 was used as a control.

Row | Structure (SMILES) | Average fluorescence intensity (subcutaneous) | Average fluorescence intensity (intramuscular) | Average fluorescence intensity (tail vein) | delivery capacity after introduction of the alkynyl group
1 | CCCCC#CCOC(=O)CCCCCCCN(CCCO)CCCCCCCC(=O)OC(CCCCCCCC)CCCCCCCC [Compound 1] | 1.4E+07 | – | – | –
2 | CCCCCC#CCOC(=O)CCCCCCCN(CCCO)CCCCCCCC(=O)OC(CCCCCCCC)CCCCCCCC [Compound 2] | 1.1E+07 | 2.4E+06 | – | –
3 | CCCCCCC#CCOC(=O)CCCCCCCN(CCCO)CCCCCCCC(=O)OC(CCCCCCCC)CCCCCCCC [Compound 3] | 2.1E+06 | 2.1E+06 | 2.1E+07 | –
4 | CCCCCCCC#CCOC(=O)CCCCCCCN(CCCO)CCCCCCCC(=O)OC(CCCCCCCC)CCCCCCCC [Compound 4] | 2.1E+05 | 2.1E+06 | 2.9E+07 | –
5 | CCCCC#CCCOC(=O)CCCCCCCN(CCCO)CCCCCCCC(=O)OC(CCCCCCCC)CCCCCCCC [Compound 5] | 7.1E+06 | – | – | –
6 | CCCCCC#CCCOC(=O)CCCCCCCN(CCCO)CCCCCCCC(=O)OC(CCCCCCCC)CCCCCCCC [Compound 6] | 2.1E+06 | 2.1E+05 | – | –
7 | CCCCCCC#CCCOC(=O)CCCCCCCN(CCCO)CCCCCCCC(=O)OC(CCCCCCCC)CCCCCCCC [Compound 7] | 2.1E+05 | 4.1E+05 | 8.1E+06 | –
8 | CCCC#CCCCOC(=O)CCCCCCCN(CCCO)CCCCCCCC(=O)OC(CCCCCCCC)CCCCCCCC [Compound 8] | 7.1E+06 | 2.1E+07 | 6.1E+06 | –
9 | CCCCC#CCCCOC(=O)CCCCCCCN(CCCO)CCCCCCCC(=O)OC(CCCCCCCC)CCCCCCCC [Compound 9] | 2.7E+06 | 5.1E+06 | 2.8E+07 | –
10 | CCCCCC#CCCCOC(=O)CCCCCCCN(CCCO)CCCCCCCC(=O)OC(CCCCCCCC)CCCCCCCC [Compound 10] | 3.1E+05 | 2.1E+05 | 2.5E+07 | –
11 | CCCCCCC#CCCCOC(=O)CCCCCCCN(CCCO)CCCCCCCC(=O)OC(CCCCCCCC)CCCCCCCC [Compound 11] | 2.1E+05 | 2.1E+06 | 5.1E+07 | –
12 | CCCCCC#CCOC(=O)CCCCCCCN(CCO)CCCCCCCC(=O)OC(CCCCCCCC)CCCCCCCC [Compound 12] | 3.2E+07 | 2.1E+06 | – | –
13 | CCCCCCC#CCOC(=O)CCCCCCCN(CCO)CCCCCCCC(=O)OC(CCCCCCCC)CCCCCCCC [Compound 13] | 2.6E+07 | 2.1E+06 | – | –
14 | CCCCCCC#CCCOC(=O)CCCCCCCN(CCO)CCCCCCCC(=O)OC(CCCCCCCC)CCCCCCCC [Compound 14] | 2.1E+06 | 4.1E+06 | 1.1E+07 | –
15 | CCCCC#CCCOC(=O)CCCCCCCN(CCCCO)CCCCCCCC(=O)OC(CCCCCCCC)CCCCCCCC [Compound 15] | 3.1E+05 | 2.8E+07 | – | –
16 | CCCCCC#CCCOC(=O)CCCCCCCN(CCCCO)CCCCCCCC(=O)OC(CCCCCCCC)CCCCCCCC [Compound 16] | 2.7E+06 | 1.4E+07 | – | –
17 | CCCCC#CCCCOC(=O)CCCCCCCN(CCCCO)CCCCCCCC(=O)OC(CCCCCCCC)CCCCCCCC [Compound 17] | 2.5E+06 | 2.7E+06 | 5.1E+07 | significantly enhanced
18 | CCCCC#CCCCOC(=O)CCCCCCCN(CCCCCCCC(=O)OC(CCCCCCCC)CCCCCCCC)C1CC(O)C1 (stereo not drawn) [Compound 18] | – | – | 7.1E+07 | –

Row | Structure (SMILES) | Average fluorescence intensity (subcutaneous) | Average fluorescence intensity (intramuscular) | Average fluorescence intensity (tail vein) | delivery capacity after introduction of the alkynyl group
19 | CCCCCC#CCCCOC(=O)CCCCCCCN(CCCCCCCC(=O)OC(CCCCCCCC)CCCCCCCC)C1CCC(O)C1 (stereo not drawn) [Compound 19] | – | 2.1E+05 | 9.1E+06 | –
20 | CCCCCC#CCCCOC(=O)CCCCCCCN(CCCCCCCC(=O)OC(CCCCCC)CCCCCCCC)C1CCC(O)C1 (stereo not drawn) [Compound 20] | 3.7E+07 | 5.2E+05 | – | –
21 | CCCCCC#CCCCOC(=O)CCCCCCCN(CCCCCCCC(=O)OC(CCCCCCCC)CCCCCCCC)C1CCC(O)CC1 (stereo not drawn) [Compound 21] | 4.1E+06 | 1.1E+07 | – | –
22 | CCCCC#CCCCOC(=O)CCCCN(CCCCO)CCCCCCCC(=O)OC(CCCCCCCC)CCCCCCCC [Compound 22] | 2.8E+07 | 3.1E+05 | – | –
23 | CCCCC#CCCCOC(=O)CCCCCCCCCN(CCCCO)CCCCCCCC(=O)OC(CCCCCCCC)CCCCCCCC [Compound 23] | – | 2.7E+05 | 6.1E+07 | –
24 | CCCCC#CCCCOC(=O)CCCCCCCCCCCCCN(CCCCO)CCCCCCCC(=O)OC(CCCCCCCC)CCCCCCCC [Compound 24] | – | 2.1E+05 | 7.8E+06 | –
25 | CCCCC#CCCCOC(=O)CCCCCCCCCCCCCN(CCCO)CCCCCCCC(=O)OC(CCCC)CCCC [Compound 25] | 2.6E+07 | 2.1E+05 | – | –
26 | CCCCC#CCCCOC(=O)CCCCCCCCCCCCCN(CCCO)CCCCCCCC(=O)OC(CCCC)CCCCCC (stereo not drawn) [Compound 26] | 1.7E+06 | 6.1E+07 | – | –
27 | CCCCC#CCCCOC(=O)CCCCN(CCCO)CCCCCCCC(=O)OCC(CCCCCC)CCCCCCCC (stereo not drawn) [Compound 28] | 2.1E+06 | 6.1E+07 | – | –
28 | CCCCCCCCCC#CC(=O)OCCCCCCCN(CCCO)CCCCCCCOC(=O)C(CCCCCC)CCCCCCCC (stereo not drawn) [Compound 29] | 8.1E+06 | 1.8E+07 | – | –
29 | CCCC#CCCCOC(=O)CCCCCCCN(CCCC#N)CCCCCCCC(=O)OC(CCCCCCCC)CCCCCCCC [Compound 30] | 7.1E+06 | 1.1E+07 | – | –
30 | CCCCC#CCCCOC(=O)CCCCCCCN(CCCCCCCC(=O)OC(CCCCCCCC)CCCCCCCC)CCCN(C)C [Compound 31] | 5.1E+05 | 1.5E+07 | – | significantly enhanced
31 | CCCC#CCCCOC(=O)CCCCCCCN(CCCCCCCC(=O)OC(CCCCCCCC)CCCCCCCC)CCCN1CCOCC1 [Compound 32] | 7.1E+05 | 2.8E+07 | – | –
32 | CCCCC#CCCCOC(=O)CCCCCCCN(CCCCCCCC(=O)OC(CCCCCCCC)CCCCCCCC)CCCOC(=O)CCCCC [Compound 33] | 3.1E+06 | 1.1E+07 | – | –
33 | CCCCC#CCCCOC(=O)CCCCCCCN(CCCCCCCC(=O)OC(CCCCCCCC)CCCCCCCC)CCCNC(=O)CCCCC [Compound 34] | 5.3E+05 | 4.8E+06 | – | –
34 | CCCCC/C=C\C/C=C\CCCCCCCCC(CCCCCCCC/C=C\C/C=C\CCCCC)OC(=O)CCCN(C)C [Compound 35, (6Z,9Z,28Z,31Z)-heptatriacont-6,9,28,31-tetraene-19-yl 4-(N,N-dimethylamino)butanoate, reference compound] | 4.1E+04 | 3.9E+03 | 6.2E+06 | –
35 | CCCCCCCCCOC(=O)CCCCCCCN(CCCCO)CCCCCCCC(=O)OC(CCCCCCCC)CCCCCCCC [Compound 36, reference compound] | 1.1E+05 | – | 4.2E+05 | –
36 | CCCCCCCCCOC(=O)CCCCCCCN(CCCCCCCC(=O)OC(CCCCCCCC)CCCCCCCC)CCCN(C)C [Compound 37, reference compound] | 2.0E+05 | 2.5E+06 | – | –
